US10508120B2, “TYK2 inhibitors and uses thereof” (Nimbus Lakshmi, Inc., priority 2017, dated 2019)
Where two headings read alike, the source gives them in different places.

Columns and labels:
JAK2 kinase domain (JH1) = JAK2 kinase domain (JH1) (Homo sapiens (Human), UniProt O60674); test: JAK2 Radioactive Kinase Assay; type: biochemical; details: for inhibition at 10 µM: read-out: JAK2 JH1% Inhibition @ 10 μM
Summary of the method: (§1)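 Values are single-concentration percent inhibition figures. They were obtained with 10 μM compound in a radioactivity-based kinase assay run separately on each enzyme.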

Tyk2 kinase domain (DH1) = Tyk2 kinase domain (DH1) (Homo sapiens (Human), UniProt P29597); test: Tyk2 Radioactive Kinase Assay; type: biochemical; details: for inhibition at 10 µM: read-out: Tyk2 JH1% Inhibition @ 10 μM
Tyk2 kinase domain (DH1), sequence (P29597 897-1176): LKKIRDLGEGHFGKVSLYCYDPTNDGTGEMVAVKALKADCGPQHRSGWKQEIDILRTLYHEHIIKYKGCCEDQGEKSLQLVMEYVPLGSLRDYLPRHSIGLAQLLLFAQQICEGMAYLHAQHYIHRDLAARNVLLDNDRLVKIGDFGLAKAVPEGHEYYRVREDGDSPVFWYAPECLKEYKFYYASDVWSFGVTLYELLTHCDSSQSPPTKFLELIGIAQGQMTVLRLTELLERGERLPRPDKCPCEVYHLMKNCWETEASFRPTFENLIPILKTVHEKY
Summary of the method: as §1

[1] = biological target: human TYK2 (JH2domain-pseudokinase) (Homo sapiens (Human), UniProt P29597); test: TYK2 JH2 Domain Binding Assay (KINOMEscan)
human TYK2 (JH2domain-pseudokinase), sequence (P29597 556-888): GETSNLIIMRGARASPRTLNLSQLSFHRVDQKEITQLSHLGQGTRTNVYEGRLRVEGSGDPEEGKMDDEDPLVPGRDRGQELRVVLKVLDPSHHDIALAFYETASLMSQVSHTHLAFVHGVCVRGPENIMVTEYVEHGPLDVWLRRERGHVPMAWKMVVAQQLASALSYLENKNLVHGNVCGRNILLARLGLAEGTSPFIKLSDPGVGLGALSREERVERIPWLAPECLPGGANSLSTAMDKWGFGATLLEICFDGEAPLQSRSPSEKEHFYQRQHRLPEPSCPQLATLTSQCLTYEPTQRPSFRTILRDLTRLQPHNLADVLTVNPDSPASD
Summary of the method: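 Pseudokinase domain binding was measured by qPCR of tagged, bead-retained kinase after 1 h room-temperature competition, with 0.9% DMSO and compound up to 30,000 nM in 3-fold steps. Hill-equation Kd, duplicate.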

JAK2 kinase domain (JH1), sequence (O60674 849-1124): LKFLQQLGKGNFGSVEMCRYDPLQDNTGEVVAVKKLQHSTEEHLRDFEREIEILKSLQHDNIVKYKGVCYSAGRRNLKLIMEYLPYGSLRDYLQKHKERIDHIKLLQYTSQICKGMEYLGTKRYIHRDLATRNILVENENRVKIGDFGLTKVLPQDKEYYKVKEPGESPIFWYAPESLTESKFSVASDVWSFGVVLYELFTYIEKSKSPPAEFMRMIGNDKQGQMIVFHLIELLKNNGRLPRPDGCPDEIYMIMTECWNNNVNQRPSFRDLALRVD

SMILES | inhibition at 10 µM (JAK2 kinase domain (JH1); 10 μM compound, 10 μM ATP) | inhibition at 10 µM (Tyk2 kinase domain (DH1); 10 μM compound, 10 μM ATP) | Kd [1] | inhibition at 10 µM (JAK2 kinase domain (JH1); compound at 10 μM, ATP 10 μM) | inhibition at 10 µM (Tyk2 kinase domain (DH1); compound at 10 μM, ATP 10 μM) | JAK2 JH1% Inhibition @ 10 μM (JAK2 kinase domain (JH1); 10 μM compound, 10 μM ATP) | Tyk2 JH1% Inhibition @ 10 μM (Tyk2 kinase domain (DH1); 10 μM compound, 10 μM ATP)
CNc1cc(Nc2cccnc2OC)nc2c(C(=O)N[C@H]3CCC[C@H](O)C3)cnn12 [I-496] | – | – | < 0.2 nM | < 50% | < 50% | – | –
CNc1cc(Nc2cccn(CCOC3CC3)c2=O)nc2c(C(=O)NC3CC4(COC4)C3)cnn12 [I-576, 5-((1-(2-cyclopropoxyethyl)-2-oxo-1,2-dihydropyridin-3-yl)amino)-7-(methylamino)-N-(2-oxaspiro[3.3]heptan-6-yl)pyrazolo[1,5-a]pyrimidine-3-carboxamide] | – | – | 1 to 10 nM | < 50% | < 50% | – | –
CNc1cc(Nc2cccnc2O[C@H]2C[C@H](OC)C2)nc2c(C(=O)NC3CCC3)cnn12 [I-187] | – | – | < 0.2 nM | < 50% | < 50% | – | –
CNc1cc(Nc2cccn(C3CCN(C)CC3)c2=O)nc2c(C(=O)N[C@H]3CC[C@H]3O)cnn12 [I-689] | – | – | 0.2 to 1 nM | < 50% | < 50% | – | –
CNc1cc(Nc2cccn([C@H]3CCCC[C@H]3OC)c2=O)nc2c(C(=O)N[C@@H]3C[C@@H]3F)cnn12 [I-1045] | < 50% | < 50% | 0.2 to 1 nM | – | – | – | –
CNc1cc(Nc2cccnc2OC2COC2)nc2c(C(=O)NC3CC3)cnn12 [I-228] | – | – | 1 to 10 nM | < 50% | < 50% | – | –
CNc1cc(Nc2cccn(C3CCCCC3)c2=O)nc2c(C(=O)N[C@H]3COC[C@H]3O)cnn12 (stereo in doubt) [I-1112, 5-((1-cyclohexyl-2-oxo-1,2-dihydropyridin-3-yl)amino)-N-(4-hydroxytetrahydrofuran-3-yl)-7-(methylamino)pyrazolo[1,5-a]pyrimidine-3-carboxamide] | < 50% | < 50% | 0.2 to 1 nM | – | – | – | –
CNc1cc(Nc2cccn(-c3cccc(F)c3)c2=O)nc2c(C(=O)NC[C@H](C)CO)cnn12 [I-1034] | < 50% | < 50% | < 0.2 nM | – | – | – | –
CNc1cc(Nc2cc(C)cn(-c3cnn(C4CC4)c3C)c2=O)nc2c(C(=O)NC3CCC3)cnn12 [I-159] | – | – | 0.2 to 1 nM | < 50% | < 50% | – | –
CNc1cc(Nc2cc(C)cnc2OC(C)C)nc2c(C(=O)NC3CC3)cnn12 [I-212] | – | – | 0.2 to 1 nM | < 50% | < 50% | – | –
CNc1cc(Nc2cccn(-c3cc(C)nn3C)c2=O)nc2c(C(=O)N[C@H]3C[C@H]3F)cnn12 [I-341] | – | – | 0.2 to 1 nM | < 50% | < 50% | – | –
CNc1cc(Nc2cccnc2OC(F)(F)F)nc2c(C(N)=O)cnn12 [I-91] | – | – | < 0.2 nM | < 50% | < 50% | – | –
CNc1cc(Nc2cccc(C3CCCCO3)n2)nc2c(C(=O)NC3CC3)cnn12 (stereo in doubt) [I-463, (R)—N-cyclopropyl-7-(methylamino)-5-((6-(tetrahydro-2H-pyran-2-yl)pyridin-2-yl)amino) pyrazolo[1,5-a]pyrimidine-3-carboxamide] | – | – | 0.2 to 1 nM | 50 to 70% | < 50% | – | –
CNc1cc(Nc2cccn(-c3cnn(C)c3F)c2=O)nc2c(C(=O)NC3CC3)cnn12 [I-808] | < 50% | < 50% | < 0.2 nM | – | – | – | –
CNc1cc(-c2cn(C(C)C)c3ncc(C)cc23)nc2c(C(=O)NC3CC3)cnn12 [I-252] | – | – | 1 to 10 nM | < 50% | < 50% | – | –
CNc1cc(Nc2cccn(-c3nc(C)c(C)s3)c2=O)nc2c(C(=O)NC3CCC3)cnn12 [I-293] | – | – | 0.2 to 1 nM | < 50% | < 50% | – | –
NC(=O)c1cnn2c(N)cc(Nc3cccn(-c4ccc(F)cc4)c3=O)nc12 [I-25] | – | – | 0.2 to 1 nM | < 50% | < 50% | – | –
Cc1cc(Nc2cc(N)n3ncc(C(N)=O)c3n2)cc(N2CCCC(O)C2)n1 (stereo in doubt) [I-62, (S)-7-amino-5-((2-(3-hydroxypiperidin-1-yl)-6-methylpyridin-4-yl)amino)pyrazolo[1,5-a]pyrimidine-3-carboxamide] | – | – | > 10 nM | < 50% | < 50% | – | –
CNc1cc(Nc2cc(Cl)cn(-c3ncc(C)s3)c2=O)nc2c(C(=O)NC3CC3)cnn12 [I-322] | – | – | 0.2 to 1 nM | < 50% | < 50% | – | –
CNc1cc(Nc2cccn([C@@H]3C[C@H]3F)c2=O)nc2c(C(=O)NCC3(CO)CC3)cnn12 [I-1122, 5-((1-((1R,2R)-2-fluorocyclopropyl)-2-oxo-1,2-dihydropyridin-3-yl)amino)-N-((1-(hydroxymethyl)cyclopropyl)methyl)-7-(methylamino)pyrazolo[1,5-a]pyrimidine-3-carboxamide] | < 50% | < 50% | 0.2 to 1 nM | – | – | – | –
NC(=O)c1cnn2c(N)cc(Nc3cc(Cl)cnc3OC3CCC3)nc12 [I-81] | – | – | 1 to 10 nM | < 50% | < 50% | – | –
CNc1cc(Nc2cccn(-c3ccccn3)c2=O)nc2c(C(=O)NC[C@H](C)CO)cnn12 [I-730] | – | – | < 0.2 nM | < 50% | < 50% | – | –
CNc1cc(Nc2cccn([C@H]3CC[C@](C)(OC)CC3)c2=O)nc2c(C(=O)NC3CC3)cnn12 [I-361] | – | – | < 0.2 nM | < 50% | < 50% | – | –
CNc1cc(Nc2cccc(-c3cn(C)nc3F)n2)nc2c(C(=O)NC3CC3)cnn12 [I-859] | < 50% | < 50% | < 0.2 nM | – | – | – | –

Second part, led by results:

inhibition at 10 µM (JAK2 kinase domain (JH1); 10 μM compound, 10 μM ATP) | inhibition at 10 µM (Tyk2 kinase domain (DH1); 10 μM compound, 10 μM ATP) | Kd [1] | inhibition at 10 µM (JAK2 kinase domain (JH1); compound at 10 μM, ATP 10 μM) | inhibition at 10 µM (Tyk2 kinase domain (DH1); compound at 10 μM, ATP 10 μM) | SMILES | JAK2 JH1% Inhibition @ 10 μM (JAK2 kinase domain (JH1); 10 μM compound, 10 μM ATP) | Tyk2 JH1% Inhibition @ 10 μM (Tyk2 kinase domain (DH1); 10 μM compound, 10 μM ATP)
< 50% | < 50% | < 0.2 nM | – | – | CNc1cc(-c2cn(CCN3CCN(C)CC3)c3ncccc23)nc2c(C(=O)N[C@H]3CC[C@@H]3OC)cnn12 (stereo in doubt) [I-885, N-(2-methoxycyclobutyl)-7-(methylamino)-5-(1-(2-(4-methylpiperazin-1-yl)ethyl)-1H-pyrrolo[2,3-b]pyridine-3-yl)pyrazolo[1,5-a]pyrimidine-3-carboxamide] | – | –
< 50% | < 50% | < 0.2 nM | – | – | CNc1cc(Nc2cccn([C@@H]3CCN(CCF)C3)c2=O)nc2c(C(=O)N[C@@H]3C[C@@H]3F)cnn12 [I-935] | – | –
– | – | < 0.2 nM | < 50% | < 50% | CNc1cc(-c2cn(CCN3CCOCC3)c3ncccc23)nc2c(C(=O)N[C@H]3CC[C@H]3O)cnn12 [I-778] | – | –
– | – | 0.2 to 1 nM | < 50% | < 50% | CNc1cc(Nc2cccn([C@H]3CC[C@@H](N4CCOCC4)CC3)c2=O)nc2c(C(N)=O)cnn12 [I-68] | – | –
– | – | < 0.2 nM | < 50% | < 50% | CNc1cc(Nc2cccnc2O[C@H]2C[C@H](OC)C2)nc2c(C(=O)NC3CC3)cnn12 [I-188] | – | –
– | – | < 0.2 nM | < 50% | < 50% | CNc1cc(Nc2cccn(C3CCN(CCC#N)CC3)c2=O)nc2c(C(=O)NC3CC3)cnn12 [I-652, 5-((1-(1-(2-cyanoethyl)piperidin-4-yl)-2-oo-1,2-dihydropyridin-3-yl)amino)-N-cyclopropyl-7-(methylamino)pyrazolo[1,5-a]pyrimidine-3-carboxamide] | – | –
– | – | 0.2 to 1 nM | < 50% | < 50% | CCCCn1cc(-c2cc(NC)n3ncc(C(=O)NC4CC4)c3n2)c2cccnc21 [I-477] | – | –
– | – | < 0.2 nM | < 50% | < 50% | CNc1cc(-c2nn(C(C)C)c3ncccc23)nc2c(C(=O)N[C@H]3C[C@H]3F)cnn12 [I-451] | – | –
< 50% | < 50% | < 0.2 nM | – | – | CNc1cc(Nc2cccn([C@@H]3CCN(CCC#N)C3)c2=O)nc2c(C(=O)N[C@@H]3C[C@@H]3F)cnn12 [I-987] | – | –
– | – | 0.2 to 1 nM | < 50% | < 50% | Cc1cc(Nc2cc(N)n3ncc(C(N)=O)c3n2)c(=O)n(-c2cnn(C)c2)n1 [I-74] | – | –
– | – | < 0.2 nM | < 50% | < 50% | CNc1cc(Nc2cccn([C@@H]3CCCOC3)c2=O)nc2c(C(=O)N[C@@H]3CC[C@H]3O)cnn12 [I-727] | – | –
< 50% | < 50% | < 0.2 nM | – | – | CNc1cc(Nc2cccn([C@@H]3CCN(CCF)C3)c2=O)nc2c(C(=O)NC3CC3)cnn12 [I-933] | – | –
– | – | 0.2 to 1 nM | < 50% | < 50% | CNc1cc(Nc2cccn(-c3cncc(C)c3)c2=O)nc2c(C(=O)NC3CC3)cnn12 [I-301] | – | –
< 50% | < 50% | 0.2 to 1 nM | – | – | CNc1cc(Nc2cc(Cl)cn(C3CCOCC3)c2=O)nc2c(C(=O)N[C@@H]3CC[C@@H]3O)cnn12 [I-1069] | – | –
– | – | 0.2 to 1 nM | – | – | CNc1cc(Nc2cccn(-c3cnco3)c2=O)nc2c(C(=O)N[C@H]3CC[C@H]3O)cnn12 [I-809] | A (percent inhibition at 10 μM lower than 50) | A (percent inhibition at 10 μM lower than 50)
– | – | < 0.2 nM | < 50% | < 50% | CNc1cc(Nc2cccn3cnnc23)nc2c(C(=O)N[C@H]3C[C@H]3F)cnn12 [I-660] | – | –
– | – | 0.2 to 1 nM | < 50% | < 50% | CNc1cc(Nc2cccnc2O[C@@H]2CCOC2)nc2c(C(=O)NC3CCC3)cnn12 [I-171] | – | –
